Measurements as given in patent US20240425470A1, “S[…] AMINE MODULATORS OF MONOAMINERGIC TRANSPORTERS” (ATAI Life Sciences AG, priority 2023, published 2024).

Legend:
Assay type in all cases: cell-based
[1] = target: Norepinephrine transporter (NET) (Homo sapiens (Human), UniProt P23975); assay: Norepinephrine transporter (NET) uptake inhibition, [3H]-Norepinephrine uptake in HEK cells; conditions: HEK cells expressing recombinant NET; [3H]-Norepinephrine 20 nM
Description: (§1) Norepinephrine transporter (NET) Uptake Inhibition: Compound activity was assessed using a convenient in vitro assay. Briefly, HEK cells expressing recombinant NET were plated at 50,000 cells/well on a 96 well plate pre-coated with Matrigel one day prior to the experiment. Culture medium (DMEM/FBS) was removed and 30 μl of assay buffer (Tris-HCl 50 mM, EDTA 4 mM, BDA 0.1%) with the desired concentration of test compound was added. The plate was incubated at 37° C. for 15 minutes. Assay buffer (30 μl) containing the same concentration of compound diluted in [3H]-Norepinephrine uptake buffer (final concentration 20 nM) was added to each well and the plate was incubated at 37° C. for 5 minutes. The reaction mixture was removed, and the cells were washed with 100 μl ice-cold assay buffer twice. Lysis buffer (50 μl) was added to the cells followed by a 5 minute incubation with gentle shaking at room temperature. The lysate was transferred to a 96 well isoplate. Optiphase supermix (100 μl) was added to each well with complete mixing. Radioactivity was counted with Microbeta Counter and reported as CPM. Desipramine was used as a control to measure non-specific uptake and for data normalization. Percent inhibition of [3H]-Norepinephrine uptake calculations: 100×(1−(CPMtest sample−CPMnon-specific uptake)/(CPMMAX−CPMMIN)).

[2] = target: Dopamine transporter (DAT) (Homo sapiens (Human), UniProt Q01959); assay: Dopamine transporter (DAT) uptake inhibition, [3H]-dopamine uptake in HEK cells; conditions: HEK cells expressing recombinant DAT; [3H]-dopamine 20 nM
Description: as §1, with “Dopamine transporter (DAT)” for “Norepinephrine transporter (NET)”, “Dopamine transporter (DAT) Uptake Inhibition:” for “Norepinephrine transporter (NET) Uptake Inhibition:”, “expressing recombinant DAT were plated” for “expressing recombinant NET were plated”, “diluted in [3H]-Dihydroxyphenylethylamine (dopamine) uptake buffer” for “diluted in [3H]-Norepinephrine uptake buffer”, “as CPM. Nomifensine was used” for “as CPM. Desipramine was used”, “inhibition of [3H]-Dopamine uptake calculations:” for “inhibition of [3H]-Norepinephrine uptake calculations:”

[3] = target: Serotonin transporter (SERT) (Homo sapiens (Human), UniProt P31645); assay: Serotonin transporter (SERT) uptake inhibition, [3H]-Serotonin uptake in HEK cells; conditions: HEK cells expressing recombinant SERT, [3H]-Serotonin 10 nM; for inhibition at 10 µM / inhibition at 100 µM: HEK293; for inhibition at 10 µM: 10 μM test compound; for inhibition at 100 µM: 100 μM test compound
Description: Serotonin transporter (SERT) Uptake Inhibition: Compound activity was assessed using an in vitro assay. Briefly, HEK cells expressing recombinant SERT were plated at 50,000 cells/well on a 96 well plate pre-coated with Matrigel one day prior to the experiment. Culture medium (DMEM/FBS) was removed from each well, and 30 μl of assay buffer (Tris-HCl 50 mM, EDTA 4 mM, BDA 0.1%) with the desired concentration of test compound was added. The plate was incubated at 37° C. for 15 minutes. Assay buffer (30 μl) containing the same concentration of compound diluted in [3H]-Serotonin uptake buffer (final concentration 10 nM) was added to each well and the plate was incubated at 37° C. for 5 minutes. The reaction mixture was removed, and the cells were washed (2×) with 100 μl ice-cold assay buffer. Lysis buffer (50 μl) was added to the cells followed by a 5 minute incubation with gentle shaking at room temperature. The lysate was transferred to a 96 well isoplate. Optiphase supermix (100 μl) was added to each well and was thoroughly mixed. Radioactivity was counted with Microbeta Counter and reported as counts per minute (CPM). Fluoxetine was used as a control to measure non-specific uptake and for data normalization. Percent inhibition of [3H]-Serotonin uptake is based on the calculation: 100×(1−(CPMtest sample−CPMnon-specific uptake)/(CPMMAX−CPMMIN)).

| Structure (SMILES) | IC50 [1] | IC50 [2] | inhibition at 10 µM [3] | inhibition at 100 µM [3] | IC50 [3] |
| --- | --- | --- | --- | --- | --- |
| CNC(C)Cc1ccc2occ(F)c2c1 (stereo not drawn) [Compound 2, 1-(3-fluorobenzofuran-5-yl)-N-methylpropan-2-amine] | 5.02 µM | 9.59 µM | 64.7% | 99% | 5.72 µM |
| CC(N)Cc1ccc2occ(F)c2c1 (stereo not drawn) [Compound 1, 1-(3-fluorobenzofuran-5-yl)propan-2-amine] | 4.73 µM | 15.6 µM | 72.7% | 97.9% | 6.75 µM |
| CNC(C)Cc1ccc2c(c1)OCO2 (stereo not drawn) [MDMA, 3,4-Methylenedioxymethamphetamine, reference compound] | 1.42 µM | 5.25 µM | 53.3% | 98% | 3.35 µM |
